In patent EP2979694B1, “Dimercaptosuccinic acid for the treatment of multidrug resistant bacterial infections” (priority 2014, dated 2016):

Key:
E. coli VIM KOW7 = test: MIC of meropenem with or without DMSA or MSA; assay type: cell-based; details: DMSA or MSA at 3 mM
Description: (§1) DMSA reduced the MICs of ertapenem for bacteria producing NDM-1 though the synergy effect was weaker than that observed for bacteria producing IMP and VIM-type MBLs.
(§2) MICs of meropenem with of without DMSA or MSA Table 3
(§3) DMSA and MSA were used at a concentration of 3 mM each. A negative control was used as strain KpC3 producing the non- metallo carbapenemase KPC

E. coli NDM FEK = test: MIC of meropenem with or without DMSA or MSA; assay type: cell-based; details: DMSA or MSA at 3 mM
Description: as §1, §2, §3

E. coli NDM CHAN = test: MIC of meropenem with or without DMSA or MSA; assay type: cell-based; details: DMSA or MSA at 3 mM
Description: as §1, §2, §3

E. coli NDM pCR2.1 = test: MIC of meropenem with or without DMSA or MSA; assay type: cell-based; details: E. coli NDM pCR2.1; DMSA or MSA at 3 mM
Description: as §1, §2, §3

IMP-1 = IMP-1 (Serratia marcescens, UniProt P52699); details: 20 microM; cited from earlier work
IMP-like producers = test: MIC of carbapenems, summary over IMP producers (n=9); assay type: cell-based
Description: (§4) The strains were as follows: VIM producers (n=10), IMP producers (n=9), NDM-1 producers (n=10). The selected concentration of DMSA was 10-fold (0.3 mM) and 100-fold (3 mM) that of the human peak serum concentration after oral administration (Asiedu et al;, 1995), and that of Ca-EDTA was assayed at the fixed concentration of 0.2 mM (Table 2). The MICs of carbapenems varied widely among isolates producing a same carbapenemase type. DMSA at 3 mM lowered the MICs of imipenem and ertapenem of IMP-like producers (100% of the tested isolates), and VIM-like producers (70 to 80 % of the tested isolates). […]

Kp VIM KOW1 = test: MIC of meropenem with or without DMSA or MSA; assay type: cell-based, K. pneumoniae; details: DMSA or MSA at 3 mM
Description: as §2, §3

Kp NDM KIE = test: MIC of meropenem with or without DMSA or MSA; assay type: cell-based, K. pneumoniae; details: DMSA or MSA at 3 mM
Description: as §2, §3

Kp NDM IND = test: MIC of meropenem with or without DMSA or MSA; assay type: cell-based, K. pneumoniae; details: DMSA or MSA at 3 mM
Description: as §2, §3

[1] = after a single oral dose of DMSA (10 mg); cited from earlier work
NDM-1 [2] = target: T1, NDM-1 (Klebsiella pneumoniae, UniProt C7C422); test: Inhibition of purified NDM-1 hydrolytic activity, UV spectrophotometry; assay type: biochemical
T1 construct: made in house
From the text: (§5) Inhibitory properties of DMSA and EDTA were also compared in-vitro by UV spectrophotometry using purified NDM-1 protein and carbapenems as substrates. E. coli TOP10 pCR2.1-(PNDM-1-blaNDM-1-bleMBL), expressing the blaNDM-1 gene with its original promoter (PNDM-1) cloned into a pTOPO multicopy plasmid and expressed in E. coli TOP10 reference strain (Dortet et al. 2012) was used for preliminary assays in order to determine the most efficient of DMSA being active against NDM producers.
Inhibition of NDM-1 by DMSA was assessed on a purified fraction of NDM-1, obtained as previously described for NDM-4 (Nordmann et al. 2012) with imipenem 100 µM as substrate.

[3] = system: E. coli TOP10 pCR2.1-(PNDM-1-blaNDM-1-bleMBL); test: MIC of imipenem, broth microdilution in zinc-complemented M9CA minimum medium; assay type: cell-based
From the text: as §5
MICs of imipenem was determined for E. coli TOP10 pCR2.1-(PNDM-1-blaNDM-1-bleMBL) in the presence of 0, 0.01, 0.1 or 1 mg/ml of Ca-EDTA or DMSA by using the broth microdilution method in zinc-complemented M9CA minimum medium (SD7025, Euromedex, France). M9CA minimal medium was used preferably to the standard Mueller Hinton broth in order to determine precisely the concentration of zinc in broth (ZnSO4, Sigma Aldrich, France, 5µg/ml (final concentration).
A 100 mM DMSA stock solution (Sigma Aldrich, France) (pH 5.0) was prepared in 0.2 M NaOH as recommended (Maiorino et al. 1990) and pH was neutralized to pH 7.0 with NaHCO3 Na2Ca-EDTA (Sigma Aldrich, France) dissolved in water.

NDM-like producers = test: MIC of carbapenems, summary over NDM producers (n=10); assay type: cell-based; details: DMSA at 3 mM
Description: as §4

Kp C3 KPC-3 = test: MIC of meropenem with or without DMSA or MSA (negative control strain, non-metallo carbapenemase KPC); assay type: cell-based, K. pneumoniae; details: Kp C3 KPC-3 (negative control); DMSA or MSA at 3 mM
Description: as §2, §3

NDM-1 [4] = target: T1, NDM-1; details: affinity for NDM-1; cited from earlier work

T1 sequence (C7C422 29-270, looked up): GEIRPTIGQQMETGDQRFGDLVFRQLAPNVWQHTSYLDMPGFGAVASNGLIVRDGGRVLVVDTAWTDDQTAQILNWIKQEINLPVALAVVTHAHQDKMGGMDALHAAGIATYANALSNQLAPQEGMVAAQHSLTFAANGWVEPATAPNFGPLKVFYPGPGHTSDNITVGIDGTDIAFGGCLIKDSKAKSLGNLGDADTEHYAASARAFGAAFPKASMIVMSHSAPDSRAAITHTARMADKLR
IMP-1, sequence (P52699 19-246 limits assumed): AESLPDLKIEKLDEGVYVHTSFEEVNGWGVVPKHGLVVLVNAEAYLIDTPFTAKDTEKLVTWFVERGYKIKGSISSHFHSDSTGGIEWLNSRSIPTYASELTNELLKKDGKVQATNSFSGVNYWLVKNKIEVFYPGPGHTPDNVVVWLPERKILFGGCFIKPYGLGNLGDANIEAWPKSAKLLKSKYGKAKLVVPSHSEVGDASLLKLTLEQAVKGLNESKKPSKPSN

Q: Which MIC of meropenem (E. coli VIM KOW7) does the source give for O=C(O)[C@@H](S)[C@@H](S)C(=O)O [DMSA, meso-2,3-dimercaptosuccinic acid] here?
A: 0.25 µg/mL

Q: And the MIC of meropenem (E. coli NDM FEK)?
A: 4 µg/mL

Q: And the MIC of meropenem (E. coli NDM CHAN)?
A: 2 µg/mL

Q: And the MIC of meropenem (E. coli NDM pCR2.1)?
A: 8 µg/mL

Q: And the “inhibition of IMP-1” value (IMP-1)?
A: inhibit

Q: And the “effect on the MICs of carbapenems” value (IMP-like producers; DMSA 0.3 mM, IMP-like producing isolates)?
A: lowered the MICs of carbapenems for most IMP-like producing isolates

Q: What about the “tested isolates for which the MICs of imipenem and ertapenem were lowered” value (IMP-like producers; DMSA at 3 mM, IMP-like producers) of the same compound?
A: 100%

Q: What about the MIC of meropenem (Kp VIM KOW1) of the same compound?
A: 32 µg/mL

Q: And the MIC of meropenem (Kp NDM KIE)?
A: 0.5 µg/mL

Q: And the MIC of meropenem (Kp NDM IND)?
A: 4 µg/mL

Q: And the “plasma concentrations of DMSA” value [1]?
A: ca. 100 µM

Q: What about the IC50 (NDM-1 [2]) of the same compound?
A: 1 mM

Q: What about the MIC of imipenem ([3]; DMSA 0 mg/ml (imipenem alone)) of the same compound?
A: 12 µg/mL

Q: And the MIC of imipenem ([3]; DMSA 0.01 mg/ml)?
A: 12 µg/mL

Q: What about the MIC of imipenem ([3]; DMSA 0.1 mg/ml) of the same compound?
A: 12 µg/mL

Q: And the MIC of imipenem ([3]; DMSA 1 mg/ml)?
A: 0.2 µg/mL

Q: What about the “effect on the MIC values of imipenem” value (NDM-like producers) of the same compound?
A: did not significantly affect

Q: And the “tested isolates for which the MICs of ertapenem were reduced” value (NDM-like producers)?
A: 50%

Q: And the MIC of meropenem (Kp C3 KPC-3)?
A: > 32 µg/mL

Q: With CC/C(C(=O)O)=C(\CC)C(=O)O [ME1071] as the compound, how does the Ki (NDM-1 [4]) read?
A: 24 mM
